Source: ChEMBL document CHEMBL4270560, “Novel curcumin analogue hybrids: Synthesis and anticancer activity” (Eur J Med Chem, 2018)

Key:
Format in all cases: functional
SGC-7901 [1] = test: Cell cycle arrest in human SGC7901 cells assessed as accumulation at G1 phase at 600 nM after 48 hrs by propidium iodide staining based flow cytometric analysis (reference value: 47.93%)
SGC-7901 [2] = test: Cell cycle arrest in human SGC7901 cells assessed as accumulation at S phase at 1200 nM after 48 hrs by propidium iodide staining based flow cytometric analysis (reference value: 33.30%)
SGC-7901 [3] = test: Induction of apoptosis in human SGC7901 cells assessed as viable cells at 800 nM after 48 hrs by Annexin V-FITC/propidium iodide staining based flow cytometric analysis (reference value: 95.9%); settings: SGC-7901, 48 h, read-out: Activity
SGC-7901 [4] = test: Induction of apoptosis in human SGC7901 cells assessed as necrotic cells at 1200 nM after 48 hrs by Annexin V-FITC/propidium iodide staining based flow cytometric analysis (reference value: 0.052 to 0.304%)
SGC-7901 [5] = test: Induction of apoptosis in human SGC7901 cells assessed as early apoptotic cells at 1000 nM after 48 hrs in presence of NAC by Annexin V-FITC/propidium iodide staining based flow cytometric analysis (reference value: 0.851%)
SGC-7901 [6] = test: Induction of apoptosis in human SGC7901 cells assessed as late apoptotic cells at 1200 nM after 48 hrs in presence of NAC by Annexin V-FITC/propidium iodide staining based flow cytometric analysis (reference value: 2.85%)

## COc1cc(OC)c2c(=O)c(OCCCOc3ccccc3/C=C/C(=O)/C=C/c3ccccn3)c(-c3cc(OC)c(OC)c(OC)c3)oc2c1
SGC-7901 [1]
  Activity: 48.92%
SGC-7901 [2]
  Activity: 36.26%
SGC-7901 [3]
  viability at 0.8 µM: 66.8%
SGC-7901 [4]
  Activity: 0.131 - 1.62%
SGC-7901 [5]
  Activity: 2.13%
SGC-7901 [6]
  Activity: 21.2%
